The experiment has as its system P388 leukemia ip, CD2F1 mice, survival T/C. Briefly: NCI In Vivo Anticancer Drug Screen. Data for tumor model P388 Leukemia (intraperitoneal) in CD2F1 (CDF1) mice. To be noted: endpoint: median survival time, higher = longer survival. Summed up: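 Mice carrying the transplanted tumor received test compound or vehicle. Survival was recorded in each group, and the value is the treated-group measurement divided by that of the vehicle-treated control group.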

[1] abbreviates: dose: 50.0 mg/kg/injection, schedule: Q01DX005 (ip), vehicle: saline with Tween-80.
[2] abbreviates: dose: 100.0 mg/kg/injection, schedule: Q04DX003 (ip), vehicle: saline with Tween-80.
The mark [3] stands for this setting: dose: 200.0 mg/kg/injection, schedule: Q04DX003 (ip), vehicle: saline with Tween-80.
Where [4] appears, read: dose: 400.0 mg/kg/injection, schedule: Q04DX003 (ip), vehicle: saline with Tween-80.
[5] abbreviates: dose: 50.0 mg/kg/injection, schedule: Q01DX009 (ip), vehicle: Klucel (hydroxypropylcellulose) (HPC).
[6] abbreviates: dose: 100.0 mg/kg/injection, schedule: Q01DX009 (ip), vehicle: Klucel (hydroxypropylcellulose) (HPC).
[7] abbreviates: dose: 200.0 mg/kg/injection, schedule: Q01DX009 (ip), vehicle: Klucel (hydroxypropylcellulose) (HPC).
The mark [8] stands for this setting: dose: 100.0 mg/kg/injection, schedule: Q01DX005 (ip), vehicle: saline with Tween-80.
Where [9] appears, read: dose: 200.0 mg/kg/injection, schedule: Q01DX005 (ip), vehicle: saline with Tween-80.
The mark [10] stands for this setting: dose: 25.0 mg/kg/injection, schedule: Q01DX009 (ip), vehicle: saline with Tween-80.
[11] abbreviates: dose: 50.0 mg/kg/injection, schedule: Q01DX009 (ip), vehicle: saline with Tween-80.
The mark [12] stands for this setting: dose: 100.0 mg/kg/injection, schedule: Q01DX009 (ip), vehicle: saline with Tween-80.
Where [13] appears, read: dose: 200.0 mg/kg/injection, schedule: Q01DX009 (ip), vehicle: saline with Tween-80.

Where “and” joins values, the source holds several entries; their conditions need not be identical. Identical values can stand only once. Toxic doses and inconclusive results are not listed.

Consider `C/C=C/C(=O)Oc1ccc[nH]c1=O`, for which the T/C is, setting by setting: (dose: 25.0 mg/kg/injection, schedule: Q01DX005 (ip), vehicle: Klucel (hydroxypropylcellulose) (HPC)) 105 % of control and 91 % of control; (dose: 50.0 mg/kg/injection, schedule: Q01DX005 (ip), vehicle: Klucel (hydroxypropylcellulose) (HPC)) 114 % of control and 116 % of control; (dose: 100.0 mg/kg/injection, schedule: Q01DX005 (ip), vehicle: Klucel (hydroxypropylcellulose) (HPC)) 108 % of control and 113 % of control; (dose: 200.0 mg/kg/injection, schedule: Q01DX005 (ip), vehicle: Klucel (hydroxypropylcellulose) (HPC)) 92 % of control.
Consider `C1CCNCC1.CC(=O)[C-](C(C)=O)c1ccccc1.CC(=O)[C-](C(C)=O)c1ccccc1.CC(=O)[C-](C(C)=O)c1ccccc1.CC(=O)[C-](C(C)=O)c1ccccc1.[Eu+3]`, for which the T/C runs as follows: (dose: 100.0 mg/kg/injection, schedule: Q04DX002 (ip), vehicle: Klucel (hydroxypropylcellulose) (HPC)) 86 % of control; (dose: 400.0 mg/kg/injection, schedule: Q04DX002 (ip), vehicle: Klucel (hydroxypropylcellulose) (HPC)) 97 % of control.
On to `CCN(CC)CCNc1ccc(COC(N)=O)c2sc3ccccc3c(=O)c12`, for which the T/C is, setting by setting: (dose: 100.0 mg/kg/injection, schedule: Q04DX003 (ip), vehicle: saline) 117 % of control; (dose: 200.0 mg/kg/injection, schedule: Q04DX003 (ip), vehicle: saline) 122 % of control.
Regarding `COc1cccc2c1C(=O)c1c(O)c3c(c(O)c1C2=O)C[C@@](O)(C(=O)CO)C[C@@H]3OC1CC(N)CC(C)O1` (stereo not given in full), the T/C is, setting by setting: (dose: 0.1 mg/kg/injection, schedule: Q01DX009 (ip), vehicle: water) 157 % of control; (dose: 0.2 mg/kg/injection, schedule: Q01DX009 (ip), vehicle: water) 154 % of control and 157 % of control; (dose: 0.32 mg/kg/injection, schedule: Q01DX009 (ip), vehicle: saline) 166 % of control; (dose: 0.39 mg/kg/injection, schedule: Q01DX009 (ip), vehicle: water) 173 % of control and 186 % of control; (dose: 0.54 mg/kg/injection, schedule: Q01DX009 (ip), vehicle: saline) 191 % of control; (dose: 0.78 mg/kg/injection, schedule: Q01DX009 (ip), vehicle: water) 185 % of control and 280 % of control. For the same molecule, the T/C is 314 % of control (dose: 0.9 mg/kg/injection, schedule: Q01DX009 (ip), vehicle: saline); 201 % of control (dose: 1.5 mg/kg/injection, schedule: Q01DX009 (ip), vehicle: saline); 157 % of control and 226 % of control and 89 % of control (dose: 1.56 mg/kg/injection, schedule: Q01DX009 (ip), vehicle: water); 200 % of control (dose: 1.8 mg/kg/injection, schedule: Q04DX003 (ip), vehicle: saline); 154 % of control and 275 % of control (dose: 3.0 mg/kg/injection, schedule: Q04DX003 (ip), vehicle: saline); 158 % of control (dose: 3.13 mg/kg/injection, schedule: Q04DX003 (ip), vehicle: water). The T/C (dose: 12.5 mg/kg/injection, schedule: Q04DX003 (ip), vehicle: water) was 103 % of control.
For `CN(C)c1ccc(C2CC(C)(O)Oc3cc4c(cc32)OCO4)cc1` (stereo not given), the T/C runs as follows: (dose: 60.0 mg/kg/injection, schedule: Q01DX005 (ip), vehicle: Klucel (hydroxypropylcellulose) (HPC)) 102 % of control; (dose: 120.0 mg/kg/injection, schedule: Q01DX005 (ip), vehicle: Klucel (hydroxypropylcellulose) (HPC)) 110 % of control; (dose: 240.0 mg/kg/injection, schedule: Q01DX005 (ip), vehicle: Klucel (hydroxypropylcellulose) (HPC)) 108 % of control.
Consider `CC(C)NCC(O)c1ccccc1Cl` (stereo not given), for which the T/C by setting is: (dose: 12.5 mg/kg/injection, schedule: Q01DX005 (ip), vehicle: saline with Tween-80) 100 % of control; (dose: 25.0 mg/kg/injection, schedule: Q01DX005 (ip), vehicle: saline with Tween-80) 104 % of control; under setting [1], 100 % of control and 90 % of control.
As to `CSc1ccc(Cl)cc1NC(=O)N(C)C`, the T/C is 98 % of control under setting [2], 98 % of control under setting [3] and 96 % of control under setting [4].
On to `CSc1nc2ccc(CN3C(=O)c4ccccc4C3=O)cc2s1`, for which the T/C reads like this: under setting [5], 88 % of control; under setting [6], 98 % of control; under setting [7], 91 % of control.
In the case of `CCOC(=O)NC(CC(C)C)C(=O)NC(CC(C)C)C(=O)OC(C)(C)C` (stereo not given), the T/C by setting is: under setting [1], 98 % of control; under setting [8], 99 % of control; under setting [9], 100 % of control.
Consider `O=C(NC(=S)c1ccc(Cl)cc1)Nc1ccccc1`, for which the T/C is 99 % of control under setting [10], 94 % of control under setting [11] and 99 % of control under setting [12].
As to `COc1ccc(OC)c(NC(=O)NC(c2ccccc2)c2ccccc2)c1`, the T/C was 96 % of control (dose: 3.12 mg/kg/injection, schedule: Q01DX009 (ip), vehicle: Klucel (hydroxypropylcellulose) (HPC)); 90 % of control (dose: 6.25 mg/kg/injection, schedule: Q01DX009 (ip), vehicle: Klucel (hydroxypropylcellulose) (HPC)); 93 % of control under setting [7].
Regarding `CO[C@H]1C[C@H]2CC[C@@]1(C)C2(C)C`, the T/C is 104 % of control (dose: 60.0 mg/kg/injection, schedule: Q01DX005 (ip), vehicle: saline); 104 % of control (dose: 120.0 mg/kg/injection, schedule: Q01DX005 (ip), vehicle: saline); 100 % of control (dose: 240.0 mg/kg/injection, schedule: Q01DX005 (ip), vehicle: saline).
Take `O=c1c2cc3ccccc3cc2c(=O)n2n1CC(O)C(Br)C2` (stereo not given): the T/C (dose: 25.0 mg/kg/injection, schedule: Q01DX009 (ip), vehicle: DMSO) was 101 % of control; the T/C (dose: 50.0 mg/kg/injection, schedule: Q01DX009 (ip), vehicle: DMSO) was 105 % of control; the T/C (dose: 100.0 mg/kg/injection, schedule: Q01DX009 (ip), vehicle: DMSO) was 105 % of control.
Take `O=C(O)C(Cc1ccccc1)N=Cc1ccc(O)cc1` (stereo not given): the T/C is 102 % of control under setting [2], 106 % of control under setting [3] and 97 % of control under setting [4].
As to `CCB1OCC(C2OC(O)C3OB(CC)OC32)O1` (stereo not given), the T/C under setting [1] was 101 % of control and 96 % of control; the T/C under setting [8] is 96 % of control; the T/C under setting [9] was 103 % of control and 92 % of control.
As to `Cc1cc(NC(=S)Nc2ccccc2)c(NC(=S)Nc2ccccc2)cc1C`, the T/C by setting is: (dose: 25.0 mg/kg/injection, schedule: Q01DX009 (ip), vehicle: Klucel (hydroxypropylcellulose) (HPC)) 97 % of control; under setting [5], 100 % of control; under setting [6], 98 % of control; under setting [7], 92 % of control; (dose: 400.0 mg/kg/injection, schedule: Q01DX009 (ip), vehicle: Klucel (hydroxypropylcellulose) (HPC)) 106 % of control.
On to `CCCC(C(=O)OC(C)CN1C(C)CCC1C)C1CCCC1` (stereo not given), for which the T/C is 112 % of control (dose: 100.0 mg/kg/injection, schedule: Q01DX009 (ip), vehicle: saline); 103 % of control (dose: 200.0 mg/kg/injection, schedule: Q01DX009 (ip), vehicle: saline); 108 % of control (dose: 400.0 mg/kg/injection, schedule: Q01DX009 (ip), vehicle: saline).
Turning to `CC(=O)Sc1ccccc1C(=O)NC1CCCCC1`, the T/C runs as follows: under setting [11], 114 % of control; under setting [12], 117 % of control; under setting [13], 114 % of control.
Take `CSC(=S)/C=C1\SC=CN1C`: the T/C reads like this: (dose: 25.0 mg/kg/injection, schedule: Q04DX002 (ip), vehicle: saline with Tween-80) 96 % of control; (dose: 50.0 mg/kg/injection, schedule: Q04DX002 (ip), vehicle: saline with Tween-80) 100 % of control; (dose: 100.0 mg/kg/injection, schedule: Q04DX002 (ip), vehicle: saline with Tween-80) 100 % of control.
`CC(C)=CCc1cc(O)c(CC=C(C)C)cc1O`: the T/C is, setting by setting: under setting [10], 101 % of control; under setting [11], 106 % of control; under setting [12], 96 % of control; under setting [13], 96 % of control.
In the case of `CC(=O)OC(C)(C)/C=C/C(=O)[C@](C)(O)[C@H]1[C@H](O)C[C@@]2(C)[C@@H]3CC=C4[C@@H](CC[C@H](O)C4(C)C)[C@]3(CO)C(=O)C[C@]12C`, the T/C was 100 % of control (dose: 0.6 mg/kg/injection, schedule: Q01DX009 (ip), vehicle: saline sonified); 100 % of control (dose: 1.2 mg/kg/injection, schedule: Q01DX009 (ip), vehicle: saline sonified); 116 % of control (dose: 2.4 mg/kg/injection, schedule: Q01DX009 (ip), vehicle: saline sonified).

The record behind these values is PubChem BioAssay AID330 (DTP/NCI, 2004).
